The source of these data is patent US8680065B2, “Oligonucleotides of human endogenous retrovirus 9 (ERV-9) long terminal repeat (LTR) and methods of use” (The United States of America, as represented by the …, priority 2008, dated 2014).

Data set [1] has as its system human primary keratinocytes. Description: Proliferation of normal human primary cells, 48 hours. It counts as cell-based. Conditions: 20 μg/ml, P>0.05. The protocol: FIG. 13 is a graph showing the effect of ERV-9 U3 sense and antisense oligonucleotides (SEQ ID NOs: 1 and 2, respectively) on human primary keratinocytes. Cells (4×10^4) were transfected with ERV-9 U3 sense or antisense oligonucleotide formulated in LIPOFECTAMINE™ at a concentration of 20 μg/ml for 48 hours. GFP oligonucleotide was used as non-specific phosphorothioate oligonucleotide control.
(§1) To determine whether the inhibitory effect of ERV-9 U3 oligonucleotides is specific to cancer cells, human primary keratinocytes (FIG. 13), lymphocytes (FIG. 14), or monocytes (FIG. 15) were treated with ERV-9 U3 sense or antisense oligonucleotide and cell proliferation was evaluated. Cells (4×10^4) were transfected with ERV-9 U3 sense or antisense oligonucleotide (SEQ ID NOs: 1 and 2, respectively) formulated in LIPOFECTAMINE™ at a concentration of 20 μg/ml. GFP oligonucleotide was used as non-specific phosphorothioate oligonucleotide control. After 48 hours, cell proliferation was assessed by direct cell counting. Cell proliferation levels were expressed relative to GFP control.

Data set [2] relates to HT1080 cells. As to the kind of experiment: Cancer cell proliferation, U3 and U5 oligonucleotides, 72 hours. Format: cell-based, human. Conditions: 20 μg/ml. The protocol: FIG. 16 is a graph showing the effect of sense and antisense ERV-9 U3 (SEQ ID NOs: 1, 2, 7, 8, 9, and 10) and U5 (SEQ ID NOs: 11 and 12) oligonucleotides on proliferation of HT1080 cells. Cells (4×10^4) were treated with oligonucleotide formulated in LIPOFECTAMINE™ at a concentration of 20 μg/ml for 72 hours. GFP sense oligonucleotide was used as a control to measure the non-specific cytotoxicity of phosphorothioate-based oligonucleotides. Antisense oligonucleotides G3139, GRN163, and MDM2 were also evaluated. Cell proliferation levels were expressed relative to cells transfected with GFP oligonucleotide. All U3 and U5 sense and antisense oligonucleotides inhibited cell proliferation to a greater extent that GFP control. In addition, with the exception of the U5 sense oligonucleotide, all U3 and U5 oligonucleotides inhibited cell proliferation better than the G3139, GRN163 and MDM2 antisense oligonucleotides.
HT1080 or MDA-231 cells (4×10^4 cells) were treated with ERV-9 LTR (U3 or U5) sense or antisense oligonucleotides formulated in LIPOFECTAMINE™ at a concentration of 20 μg/ml for 72 hours. GFP sense oligonucleotide was used as a control to measure the non-specific cytotoxicity of phosphorothioates-based oligonucleotides. Relative cell proliferation levels were expressed as percentage of GFP oligonucleotide transfected control. The results are shown in FIG. 16 (HT1080 cells) and FIG. 17 (MDA-231 cells).

The test system of data set [3] is MCF-7 cells. Description: Cancer cell proliferation, oligonucleotide in combination with VP16, 48 hours. Format: cell-based, human. Conditions: oligonucleotide 15 μg/ml with VP16 30 ng/ml and 50 ng/ml, P<0.05. The protocol: FIG. 12 is a graph showing proliferation of MCF-7 cells treated with ERV-9 U3 sense or antisense oligonucleotide (SEQ ID NOs: 1 and 2, respectively), in combination with VP16. Cells (4×10^4) were treated with oligonucleotide (15 μg/ml) alone or in combination with the concentrations of VP16 shown for 48 hours.
(§2) To test the effect of treating cancer cells with the combination of ERV-9 U3 oligonucleotide and VP16, six different cancer cell lines were analyzed: HT1080, (FIG. 7); MDA-231 (FIG. 8); K562 (FIG. 9); LNcaP (FIG. 10); HepG2 (FIG. 11); and MCF-7 (FIG. 12). Cells (4×10^4) were treated with 15 μg/ml ERV-9 U3 sense (SEQ ID NO: 1) or antisense (SEQ ID NO: 2) oligonucleotide alone or in combination with VP16 at a concentration of 30 ng/ml or 50 ng/ml. After 48 hours, cell proliferation was assessed by direct cell counting. Cell proliferation levels were expressed relative to GFP oligonucleotide control in the absence of VP16.

Data set [4] deals with HT1080 cells. The description is as above. Format: cell-based, human. Conditions: oligonucleotide 15 μg/ml with VP16 30 ng/ml and 50 ng/ml, P<0.05. The protocol: FIG. 7 is a graph showing proliferation of HT1080 cells treated with ERV-9 U3 sense or antisense oligonucleotide (SEQ ID NOs: 1 and 2, respectively), in combination with VP16 (also known as etoposide). Cells (4×10^4) were treated with oligonucleotide (15 μg/ml) alone or in combination with the concentrations of VP16 shown for 48 hours. Cell proliferation levels were expressed relative to the percentage of GFP oligonucleotide control in the absence of VP16.
as §2

For data set [5], the system named is K562 cells. Described as above. It counts as cell-based, human. Conditions: oligonucleotide 15 μg/ml with VP16 30 ng/ml and 50 ng/ml, P<0.05. The protocol:
FIG. 9 is a graph showing proliferation of K562 cells treated with ERV-9 U3 sense or antisense oligonucleotide (SEQ ID NOs: 1 and 2, respectively), in combination with VP16. Cells (4×10^4) were treated with oligonucleotide (15 μg/ml) alone or in combination with the concentrations of VP16 shown for 48 hours.
as §2

Data set [6] relates to MDA-231 cells. The data set is described as above. Conditions: oligonucleotide 15 μg/ml with VP16 30 ng/ml and 50 ng/ml, P<0.05. It counts as cell-based, human.
Data set [7] relates to LNcaP cells. The data set is described as above. It counts as cell-based, human. Conditions: oligonucleotide 15 μg/ml with VP16 30 ng/ml and 50 ng/ml. On the procedure: FIG. 10 is a graph showing proliferation of LNcaP cells treated with ERV-9 U3 sense or antisense oligonucleotide (SEQ ID NOs: 1 and 2, respectively), in combination with VP16. Cells (4×10^4) were treated with oligonucleotide (15 μg/ml) alone or in combination with the concentrations of VP16 shown for 48 hours.
as §2

In data set [8] the test system is human primary monocytes. Description: Proliferation of normal human primary cells, 48 hours. Format: cell-based. Conditions: 20 μg/ml, P>0.05. On the procedure:
FIG. 15 is a graph showing the effect of ERV-9 U3 sense and antisense oligonucleotides (SEQ ID NOs: 1 and 2, respectively) on human primary monocytes. Cells (4×10^4) were transfected with ERV-9 U3 sense or antisense oligonucleotide formulated in LIPOFECTAMINE™ at a concentration of 20 μg/ml for 48 hours.
as §1

Turning to “U3AS: ERV-9 LTR U3 antisense oligonucleotide CTGATTGGTGTGTTTACAAACCTTGAG, phosphorothioate internucleoside linkages at each position (all phosphorothioate, sugars by position and methylation of C not given here) [Oligo U3AS]”, the “cell proliferation relative to control GFP oligonucleotide” value in data set [1] and in data set [8] was “did not inhibit cell proliferation relative to control GFP oligonucleotide” in each case. For the same substance, the “cell proliferation relative to GFP oligonucleotide transfected control” value in data set [2] is “inhibited cell proliferation better than G3139, GRN163 and MDM2 oligonucleotides”. In addition, the “cell proliferation relative to GFP oligonucleotide control” value in data set [3] is “inhibited cell proliferation better than GFP control and G3139, GRN163 and MDM2 antisense oligonucleotides”; in data set [4], “inhibited cell proliferation better than GFP control and G3139, GRN163 and MDM2 antisense oligonucleotides”; in data set [5], “inhibited cell proliferation better than GFP control and G3139, GRN163 and MDM2 antisense oligonucleotides”; in data set [6] it was “inhibited cell proliferation better than GFP control and G3139, GRN163 and MDM2 antisense oligonucleotides”; in data set [7], “inhibited cell proliferation better than GFP oligonucleotide”.
With “U3S: ERV-9 LTR U3 sense oligonucleotide CTCAAGGTTTGTAAACACACCAATCAG, phosphorothioate internucleoside linkages at each position (all phosphorothioate, sugars by position and methylation of C not given here) [Oligo U3S]”, the “cell proliferation relative to control GFP oligonucleotide” value in data set [1] and in data set [8] was “did not inhibit cell proliferation relative to control GFP oligonucleotide” each time. In data set [2], the “cell proliferation relative to GFP oligonucleotide transfected control” value was “inhibited cell proliferation better than G3139, GRN163 and MDM2 oligonucleotides”. The “cell proliferation relative to GFP oligonucleotide control” value is “inhibited cell proliferation better than GFP control and G3139, GRN163 and MDM2 antisense oligonucleotides” in data set [3]; “inhibited cell proliferation better than GFP control and G3139, GRN163 and MDM2 antisense oligonucleotides” in data set [4]; “inhibited cell proliferation better than GFP control and G3139, GRN163 and MDM2 antisense oligonucleotides” in data set [5]; “inhibited cell proliferation better than GFP oligonucleotide” in data set [6]; “inhibited cell proliferation better than GFP oligonucleotide” in data set [7].
